Measurements as given in patent US10100027B2, “Benzofuran analogue as NS4B inhibitor” (priority 2014, dated 2018).

Tested on: HCV genotype 1a (HCV-1a) replicon cells
Experiment: HCV genotype 1a replicon cell assay (luciferase, Bright-Glo)
Assay type: cell-based
Details: Hepatitis C virus, 72 h, HCV-1a (H77) replicon cells, 3 days
Experimental: (§1) The EC50 and CC50 values of anti-HCV compounds were determined by HCV genotype 1a (HCV-1a) and 1b (HCV-1b) stable transfected replication (replicon) cells. The source of genotype 1a replicon is H77 clones containing K1691R, K2040R and S2204I adaptive mutations. The source of genotype 1b replicon is Con1 clones containing E1202G, T1280I and K1846T adaptive mutations.
(§2) HCV 1a (HCV-1a) and 1b (HCV-1b) gene subtype replicon system contains the related HCV gene subtype non-structural protein gene, G418 resistance gene NEO and luciferase gene, which results in that HCV related protein and luciferase can be stably expressed in cells. By detecting the level of expression of luciferase gene, the level of HCV replication can be determined. Therefore, the system is used as a model for screening the activity of anti-HCV compound in vitro.
(§3) The compound powder was dissolved in 100% DMSO. Then the compound was diluted 5 times with 6 points, and added into the cell plate with Echo liquid handler. Ensure the final concentration of DMSO was 0.5%. Each compound was tested in duplicate.
(§4) 4) Diluting cells to 8×10^4 cells/mL with the culture medium, adding the diluted cells into the compound-containing 96-well plate (Greiner, Cat. #655090) (100 μL/well, 8000 cells/well) with automatic liquid separator (Thermo Scientific). Then place into a 37° C., 5% CO2 incubator for 3 days. Cell control well: no compound, only containing 0.5% DMSO.
(§5) 6) Then adding luciferase substrate Bright-Glo, after incubation for 5 minutes, detecting the luciferase activity by microplate reader Envison (wavelength>700 nm); analyzing the anti-HCV inhibitory activity of the compounds according to luminescence data, which was used to calculate EC50 values.
(§6) The EC50 or CC50 values were obtained by nonlinear fitting regression on inhibition percentage (inh %) data with GraphPad Prism software.
Compound COC1CN(C(=O)C2CCN(C(=O)c3oc4c(C(F)(F)F)cc(C5CC5)cc4c3Cl)CC2)C1 [YD_0340] has an EC50 of 100 to 1000 nM. Compound O=C(c1oc2c(C(F)(F)F)cc(C3CC3)cc2c1Cl)N1CCC(C(=O)N2CC(F)C2)CC1 [YD_0342] has an EC50 of 0.1 to 100 nM. CN(C)C1CN(C(=O)C2CCN(C(=O)c3oc4c(C(F)(F)F)cc(C5CC5)cc4c3Cl)CC2)C1 [YD_0343] gave an EC50 of 100 to 1000 nM. COC1(C)CN(C(=O)C2CCN(C(=O)c3oc4c(C(F)(F)F)cc(C5CC5)cc4c3Cl)CC2)C1 [YD_0344] showed an EC50 of 100 to 1000 nM. Work on CC1(O)CN(C(=O)C2CCN(C(=O)c3oc4c(C(F)(F)F)cc(C5CC5)cc4c3Cl)CC2)C1 [YD_0345] yielded an EC50 of 100 to 1000 nM. In the case of NC1CN(C(=O)C2CCN(C(=O)c3oc4c(C(F)(F)F)cc(C5CC5)cc4c3Cl)CC2)C1 [YD_0346], the EC50 is reported as 100 to 1000 nM. Work on CC1(C(N)=O)CN(C(=O)C2CCN(C(=O)c3oc4c(C(F)(F)F)cc(C5CC5)cc4c3Cl)CC2)C1 [YD_0348] yielded an EC50 of 100 to 1000 nM. O=C(c1oc2c(C(F)(F)F)cc(C3CC3)cc2c1Cl)N1CCC(C(=O)N2CC(F)(F)C2)CC1 [YD_0349] showed an EC50 of 100 to 1000 nM. Compound CC1CN(C(=O)C2CCN(C(=O)c3oc4c(C(F)(F)F)cc(C5CC5)cc4c3Cl)CC2)C1 [YD_0350] has an EC50 of 100 to 1000 nM. Compound O=C(O)C1CCN1C(=O)C1CCN(C(=O)c2oc3c(C(F)(F)F)cc(C4CC4)cc3c2Cl)CC1 (stereo not drawn) [YD_0351] has an EC50 of 100 to 1000 nM. N#CC1CN(C(=O)C2CCN(C(=O)c3oc4c(C(F)(F)F)cc(C5CC5)cc4c3Cl)CC2)C1 [YD_0352] gave an EC50 of 100 to 1000 nM. For NC(=O)C1CN(C(=O)C2CCN(C(=O)c3oc4c(C(F)(F)F)cc(C5CC5)cc4c3Cl)CC2)C1 [YD_0353], the EC50 was 100 to 1000 nM. Work on O=C(c1oc2c(C(F)(F)F)cc(C3CC3)cc2c1Cl)N1CCC(C(=O)N2CC(CO)C2)CC1 [YD_0355] yielded an EC50 of 100 to 1000 nM. In the case of O=C(c1oc2c(C(F)(F)F)cc(C3CC3)cc2c1Cl)N1CCC(C(=O)N2CC(O)C2)CC1 [YD_0356], the EC50 is reported as 0.1 to 100 nM. In the case of O=C(c1oc2c(C(F)(F)F)cc(C3CC3)cc2c1Cl)N1CCN(C2CCCC2)C(=O)N1 [YD_0357], the EC50 is reported as 0.1 to 100 nM. O=C(c1oc2c(C(F)(F)F)cc(C3CC3)cc2c1Cl)N1CCN([C@H]2CC[C@H](O)CC2)C(=O)N1 [YD_0365] gave an EC50 of 0.1 to 100 nM. Work on CC(C)N1CCN(C(=O)c2oc3c(C(F)(F)F)cc(C4CC4)cc3c2Cl)NC1=O [YD_0374] yielded an EC50 of 0.1 to 100 nM. Work on O=C(c1nn2c(C(F)(F)F)cc(C3CC3)cc2c1Cl)N1CCN(C2CCCC2)C(=O)N1 [YH_0369] yielded an EC50 of 100 to 1000 nM. In the case of CC(C)N1CCN(C(=O)c2nn3c(C(F)(F)F)cc(C4CC4)cc3c2Cl)NC1=O [YH_0373], the EC50 is reported as 0.1 to 100 nM.

Tested on: HCV genotype 1b (HCV-1b) replicon cells
Experiment: HCV genotype 1b replicon cell assay (luciferase, Bright-Glo)
Assay type: cell-based
Details: Hepatitis C virus, 72 h, HCV-1b (Con1) replicon cells, 3 days
Experimental: as §1, §2, §3, §4, §5, §6
Work on COC1CN(C(=O)C2CCN(C(=O)c3oc4c(C(F)(F)F)cc(C5CC5)cc4c3Cl)CC2)C1 [YD_0340] yielded an EC50 of 100 to 1000 nM. Compound O=C(c1oc2c(C(F)(F)F)cc(C3CC3)cc2c1Cl)N1CCC(C(=O)N2CC(F)C2)CC1 [YD_0342] has an EC50 of 0.1 to 100 nM. CN(C)C1CN(C(=O)C2CCN(C(=O)c3oc4c(C(F)(F)F)cc(C5CC5)cc4c3Cl)CC2)C1 [YD_0343] showed an EC50 of 1000 to 5000 nM. Work on COC1(C)CN(C(=O)C2CCN(C(=O)c3oc4c(C(F)(F)F)cc(C5CC5)cc4c3Cl)CC2)C1 [YD_0344] yielded an EC50 of 1000 to 5000 nM. CC1(O)CN(C(=O)C2CCN(C(=O)c3oc4c(C(F)(F)F)cc(C5CC5)cc4c3Cl)CC2)C1 [YD_0345] gave an EC50 of 1000 to 5000 nM. In the case of NC1CN(C(=O)C2CCN(C(=O)c3oc4c(C(F)(F)F)cc(C5CC5)cc4c3Cl)CC2)C1 [YD_0346], the EC50 is reported as 100 to 1000 nM. With CC1(C(N)=O)CN(C(=O)C2CCN(C(=O)c3oc4c(C(F)(F)F)cc(C5CC5)cc4c3Cl)CC2)C1 [YD_0348] the EC50 was 1000 to 5000 nM. O=C(c1oc2c(C(F)(F)F)cc(C3CC3)cc2c1Cl)N1CCC(C(=O)N2CC(F)(F)C2)CC1 [YD_0349] showed an EC50 of 100 to 1000 nM. For CC1CN(C(=O)C2CCN(C(=O)c3oc4c(C(F)(F)F)cc(C5CC5)cc4c3Cl)CC2)C1 [YD_0350], the EC50 was 100 to 1000 nM. With O=C(O)C1CCN1C(=O)C1CCN(C(=O)c2oc3c(C(F)(F)F)cc(C4CC4)cc3c2Cl)CC1 (stereo not drawn) [YD_0351] the EC50 was 1000 to 5000 nM. With N#CC1CN(C(=O)C2CCN(C(=O)c3oc4c(C(F)(F)F)cc(C5CC5)cc4c3Cl)CC2)C1 [YD_0352] the EC50 was 1000 to 5000 nM. Compound NC(=O)C1CN(C(=O)C2CCN(C(=O)c3oc4c(C(F)(F)F)cc(C5CC5)cc4c3Cl)CC2)C1 [YD_0353] has an EC50 of 1000 to 5000 nM. O=C(c1oc2c(C(F)(F)F)cc(C3CC3)cc2c1Cl)N1CCC(C(=O)N2CC(CO)C2)CC1 [YD_0355] gave an EC50 of 1000 to 5000 nM. Compound O=C(c1oc2c(C(F)(F)F)cc(C3CC3)cc2c1Cl)N1CCC(C(=O)N2CC(O)C2)CC1 [YD_0356] has an EC50 of 0.1 to 100 nM. With O=C(c1oc2c(C(F)(F)F)cc(C3CC3)cc2c1Cl)N1CCN(C2CCCC2)C(=O)N1 [YD_0357] the EC50 was 0.1 to 100 nM. Work on O=C(c1oc2c(C(F)(F)F)cc(C3CC3)cc2c1Cl)N1CCN([C@H]2CC[C@H](O)CC2)C(=O)N1 [YD_0365] yielded an EC50 of 0.1 to 100 nM. In the case of CC(C)N1CCN(C(=O)c2oc3c(C(F)(F)F)cc(C4CC4)cc3c2Cl)NC1=O [YD_0374], the EC50 is reported as 0.1 to 100 nM. O=C(c1nn2c(C(F)(F)F)cc(C3CC3)cc2c1Cl)N1CCN(C2CCCC2)C(=O)N1 [YH_0369] gave an EC50 of 1000 to 5000 nM. CC(C)N1CCN(C(=O)c2nn3c(C(F)(F)F)cc(C4CC4)cc3c2Cl)NC1=O [YH_0373] gave an EC50 of 0.1 to 100 nM.

Tested on: not listed separately
Experiment: Cytotoxicity in HCV replicon cells (Cell Titer-fluor)
Assay type: cell-based
Details: not given
Experimental: as §1, §3, §4
5) Adding fluorescence substrate Cell Titer-fluor to the cell well, after incubation for 30 minutes, detecting the signal by microplate reader Envison (Ex at 405 nm and read at 515 nm). The effect of the compounds on the cytotoxicity of HCV replicon cells was analyzed according to the fluorescence data, which was used to calculate the CC50 values.
as §6
COC1CN(C(=O)C2CCN(C(=O)c3oc4c(C(F)(F)F)cc(C5CC5)cc4c3Cl)CC2)C1 [YD_0340] gave a CC50 at 3 days greater than 3000 nM. O=C(c1oc2c(C(F)(F)F)cc(C3CC3)cc2c1Cl)N1CCC(C(=O)N2CC(F)C2)CC1 [YD_0342] showed a CC50 at 3 days greater than 3000 nM. In the case of CN(C)C1CN(C(=O)C2CCN(C(=O)c3oc4c(C(F)(F)F)cc(C5CC5)cc4c3Cl)CC2)C1 [YD_0343], the CC50 at 3 days is reported as greater than 3000 nM. COC1(C)CN(C(=O)C2CCN(C(=O)c3oc4c(C(F)(F)F)cc(C5CC5)cc4c3Cl)CC2)C1 [YD_0344] showed a CC50 at 3 days greater than 3000 nM. With CC1(O)CN(C(=O)C2CCN(C(=O)c3oc4c(C(F)(F)F)cc(C5CC5)cc4c3Cl)CC2)C1 [YD_0345] the CC50 at 3 days was greater than 3000 nM. For NC1CN(C(=O)C2CCN(C(=O)c3oc4c(C(F)(F)F)cc(C5CC5)cc4c3Cl)CC2)C1 [YD_0346], the CC50 at 3 days was greater than 3000 nM. In the case of CC1(C(N)=O)CN(C(=O)C2CCN(C(=O)c3oc4c(C(F)(F)F)cc(C5CC5)cc4c3Cl)CC2)C1 [YD_0348], the CC50 at 3 days is reported as greater than 3000 nM. For O=C(c1oc2c(C(F)(F)F)cc(C3CC3)cc2c1Cl)N1CCC(C(=O)N2CC(F)(F)C2)CC1 [YD_0349], the CC50 at 3 days was greater than 3000 nM. CC1CN(C(=O)C2CCN(C(=O)c3oc4c(C(F)(F)F)cc(C5CC5)cc4c3Cl)CC2)C1 [YD_0350] showed a CC50 at 3 days greater than 3000 nM. With O=C(O)C1CCN1C(=O)C1CCN(C(=O)c2oc3c(C(F)(F)F)cc(C4CC4)cc3c2Cl)CC1 (stereo not drawn) [YD_0351] the CC50 at 3 days was greater than 3000 nM. With N#CC1CN(C(=O)C2CCN(C(=O)c3oc4c(C(F)(F)F)cc(C5CC5)cc4c3Cl)CC2)C1 [YD_0352] the CC50 at 3 days was greater than 3000 nM. Work on NC(=O)C1CN(C(=O)C2CCN(C(=O)c3oc4c(C(F)(F)F)cc(C5CC5)cc4c3Cl)CC2)C1 [YD_0353] yielded a CC50 at 3 days greater than 3000 nM. In the case of O=C(c1oc2c(C(F)(F)F)cc(C3CC3)cc2c1Cl)N1CCC(C(=O)N2CC(CO)C2)CC1 [YD_0355], the CC50 at 3 days is reported as greater than 3000 nM. For O=C(c1oc2c(C(F)(F)F)cc(C3CC3)cc2c1Cl)N1CCC(C(=O)N2CC(O)C2)CC1 [YD_0356], the CC50 at 3 days was greater than 3000 nM. With O=C(c1oc2c(C(F)(F)F)cc(C3CC3)cc2c1Cl)N1CCN(C2CCCC2)C(=O)N1 [YD_0357] the CC50 at 3 days was greater than 3000 nM. O=C(c1oc2c(C(F)(F)F)cc(C3CC3)cc2c1Cl)N1CCN([C@H]2CC[C@H](O)CC2)C(=O)N1 [YD_0365] showed a CC50 at 3 days greater than 3000 nM. CC(C)N1CCN(C(=O)c2oc3c(C(F)(F)F)cc(C4CC4)cc3c2Cl)NC1=O [YD_0374] showed a CC50 at 3 days greater than 3000 nM. For O=C(c1nn2c(C(F)(F)F)cc(C3CC3)cc2c1Cl)N1CCN(C2CCCC2)C(=O)N1 [YH_0369], the CC50 at 3 days was greater than 3000 nM. For CC(C)N1CCN(C(=O)c2nn3c(C(F)(F)F)cc(C4CC4)cc3c2Cl)NC1=O [YH_0373], the CC50 at 3 days was greater than 3000 nM.
